SMILES strings stand for the structures. Like-named read-outs stand apart in the source and are kept apart here.

Assay [1] deals with T1, complex I (NADH:ubiquinone oxidoreductase), Pd-CI (Paracoccus denitrificans, UniProt A1B487+A1B495+A1B497).
T1 construct: gene nuoD; intact purified complex I, His6-tag on C-terminus of Nqo5 (Pd-Nqo5^His6); with multisubunit complex (14 core Nqo subunits plus PdNUMM, PdNUYM, PdN7BM)
Description: NADH:DQ oxidoreductase assay, detergent-solubilized purified enzyme ([…] in proteoliposomes). Type of assay: biochemical.

Assay [2] addresses T1, complex I (NADH:ubiquinone oxidoreductase), Pd-CI. The description is as above. Type of assay: biochemical. The source holds these as a separate data set.

T1 sequence (A1B496 entry or part of it): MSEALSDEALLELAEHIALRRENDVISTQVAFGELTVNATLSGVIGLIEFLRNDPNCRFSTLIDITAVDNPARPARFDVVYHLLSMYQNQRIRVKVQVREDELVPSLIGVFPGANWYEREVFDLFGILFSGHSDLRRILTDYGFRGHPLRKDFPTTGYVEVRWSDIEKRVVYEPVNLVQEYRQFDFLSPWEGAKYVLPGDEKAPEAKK
T1 sequence (A1B495 whole entry): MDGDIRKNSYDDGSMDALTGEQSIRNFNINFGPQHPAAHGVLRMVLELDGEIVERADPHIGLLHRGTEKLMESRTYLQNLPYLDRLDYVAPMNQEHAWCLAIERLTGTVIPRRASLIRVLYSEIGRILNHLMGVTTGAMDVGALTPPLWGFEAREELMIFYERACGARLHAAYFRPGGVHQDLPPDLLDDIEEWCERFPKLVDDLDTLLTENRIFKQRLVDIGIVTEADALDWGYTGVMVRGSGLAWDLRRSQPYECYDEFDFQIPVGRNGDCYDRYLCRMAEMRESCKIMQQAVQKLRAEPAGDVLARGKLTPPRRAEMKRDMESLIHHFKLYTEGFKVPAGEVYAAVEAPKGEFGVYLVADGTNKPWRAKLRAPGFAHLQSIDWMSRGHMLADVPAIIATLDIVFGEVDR
T1 sequence (A1B487 whole entry): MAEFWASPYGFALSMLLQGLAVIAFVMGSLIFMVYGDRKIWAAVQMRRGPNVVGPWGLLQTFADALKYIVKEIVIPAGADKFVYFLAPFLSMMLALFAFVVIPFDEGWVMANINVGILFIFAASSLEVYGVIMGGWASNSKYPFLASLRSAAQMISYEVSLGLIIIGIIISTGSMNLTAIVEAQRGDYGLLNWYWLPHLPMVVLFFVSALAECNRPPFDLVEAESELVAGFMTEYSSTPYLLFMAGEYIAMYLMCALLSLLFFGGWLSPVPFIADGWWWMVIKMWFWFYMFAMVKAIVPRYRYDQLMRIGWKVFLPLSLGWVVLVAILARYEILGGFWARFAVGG
T1 sequence (A1B498 entry or part of it, further chain): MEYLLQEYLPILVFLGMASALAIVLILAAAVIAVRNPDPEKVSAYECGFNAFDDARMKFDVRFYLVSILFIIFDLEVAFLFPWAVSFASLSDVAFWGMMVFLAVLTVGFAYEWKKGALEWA
T1 sequence (A1B497 whole entry): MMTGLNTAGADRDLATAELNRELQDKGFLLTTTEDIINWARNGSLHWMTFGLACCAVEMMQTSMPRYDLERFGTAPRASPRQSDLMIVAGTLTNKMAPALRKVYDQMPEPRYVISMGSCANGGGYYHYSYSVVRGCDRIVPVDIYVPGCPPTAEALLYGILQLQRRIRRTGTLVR

With `C/C=C(\C)[C@H](O)[C@H](C)/C=C(C)/C=C/C/C(C)=C/Cc1nc(OC)c(OC)c(O)c1C` [piericidin A], the IC50 (in general, the concentration at which inhibition is half-maximal) in assay [1] amounted to 72 ± 7 nM.

`C=C(C)[C@H]1Cc2c(ccc3c2O[C@@H]2COc4cc(OC)c(OC)cc4[C@@H]2C3=O)O1` [rotenone] had a half-maximal inhibitory concentration (IC50) in assay [2] of 2230 ± 185 nM.

(Values after publication PMC8115037, “Paracoccus denitrificans: a genetically tractable model system for studying respiratory complex I” (Scientific Reports, 2021).)
